Source: PubChem BioAssay (NCI)
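Protocol summary: plate cells (96-well), add compound at 5 concentrations, incubate 48 h, interpolate endpoints linearly. Definition used: TGI = concentration required for complete inhibition of growth.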

Experiments:
Assay in all cases: growth of human tumour cells (NCI), 48 h
OVCAR-4 ovarian = test system: OVCAR-4 ovarian
MALME-3M melanoma = test system: MALME-3M melanoma
A549 NSCLC = test system: A549 NSCLC
SNB-75 CNS = test system: SNB-75 CNS
BT-549 breast = test system: BT-549 breast
HOP-92 NSCLC = test system: HOP-92 NSCLC
HOP-62 NSCLC = test system: HOP-62 NSCLC
OVCAR-3 ovarian = test system: OVCAR-3 ovarian
NCI-H226 lung = test system: NCI-H226 lung
KM12 colon = test system: KM12 colon

Compound `C=CC[C@@]1(C(=O)OC)[C@H](Sc2ccccc2)C1(C)C` has a TGI (OVCAR-4 ovarian) of over 100 µM, a TGI (MALME-3M melanoma) of 84.9 µM and a TGI (A549 NSCLC) of over 100 µM. For the same compound, the TGI (SNB-75 CNS) was 80.8 µM, the TGI (BT-549 breast) was over 100 µM and the TGI (HOP-92 NSCLC) was 76.4 µM. For the same compound, the TGI (HOP-62 NSCLC) was over 100 µM, the TGI (OVCAR-3 ovarian) was over 100 µM and the TGI (NCI-H226 lung) was over 100 µM. For the same compound, the TGI (KM12 colon) was over 100 µM.

Work on `CSc1cc(N)ccc1N=Nc1ccc(S(N)(=O)=O)cc1` yielded a TGI (OVCAR-4 ovarian) of over 100 µM, a TGI (MALME-3M melanoma) of 84.4 µM and a TGI (A549 NSCLC) of 71.2 µM. The TGI (SNB-75 CNS) was 59.8 µM, the TGI (BT-549 breast) was 36.4 µM and the TGI (HOP-92 NSCLC) was 68.2 µM. For the same compound, the TGI (HOP-62 NSCLC) was 79 µM, the TGI (OVCAR-3 ovarian) was 68.5 µM and the TGI (NCI-H226 lung) was 50.4 µM. For the same compound, the TGI (KM12 colon) was 92.2 µM.

`NC(N)=NS(=O)(=O)c1ccc(NC(=O)c2ccc3nc4ccccc4c(Nc4ccc(S(N)(=O)=O)cc4)c3c2)cc1` gave a TGI (OVCAR-4 ovarian) of over 100 µM, a TGI (MALME-3M melanoma) of over 100 µM and a TGI (A549 NSCLC) of over 100 µM. The TGI (SNB-75 CNS) was over 100 µM, the TGI (BT-549 breast) was over 100 µM and the TGI (HOP-92 NSCLC) was over 100 µM. The TGI (HOP-62 NSCLC) was over 100 µM, the TGI (OVCAR-3 ovarian) was over 100 µM and the TGI (NCI-H226 lung) was over 100 µM. For the same compound, the TGI (KM12 colon) was over 100 µM.

For `Cc1ccc(-c2n[nH]c(=O)[nH]2)cc1[N+](=O)[O-]`, the TGI (OVCAR-4 ovarian) was over 100 µM, the TGI (MALME-3M melanoma) was over 100 µM and the TGI (A549 NSCLC) was over 100 µM. It also gave a TGI (SNB-75 CNS) of over 100 µM, a TGI (BT-549 breast) of over 100 µM and a TGI (HOP-92 NSCLC) of over 100 µM. For the same compound, the TGI (HOP-62 NSCLC) was over 100 µM, the TGI (OVCAR-3 ovarian) was over 100 µM and the TGI (NCI-H226 lung) was over 100 µM. For the same compound, the TGI (KM12 colon) was over 100 µM.

For `COC(=O)[C@@H]1C[C@@]2(C3C=CN(C(=O)C(F)(F)F)C=C3)c3ccccc3N(C(=O)C(F)(F)F)[C@H]2N1C(=O)OC`, the TGI (OVCAR-4 ovarian) was over 100 µM, the TGI (MALME-3M melanoma) was over 100 µM and the TGI (A549 NSCLC) was over 100 µM. It also gave a TGI (SNB-75 CNS) of over 100 µM, a TGI (BT-549 breast) of over 100 µM and a TGI (HOP-92 NSCLC) of over 100 µM. For the same compound, the TGI (HOP-62 NSCLC) was over 100 µM, the TGI (OVCAR-3 ovarian) was over 100 µM and the TGI (NCI-H226 lung) was over 100 µM. The TGI (KM12 colon) was over 100 µM.

Work on `CC(=Nc1ccncc1)C(C)=Nc1ccncc1` yielded a TGI (OVCAR-4 ovarian) of 27.4 µM, a TGI (MALME-3M melanoma) of 37.3 µM and a TGI (A549 NSCLC) of over 100 µM. It also gave a TGI (SNB-75 CNS) of over 100 µM, a TGI (BT-549 breast) of 42.3 µM and a TGI (HOP-92 NSCLC) of 83.5 µM. For the same compound, the TGI (HOP-62 NSCLC) was 49.4 µM, the TGI (OVCAR-3 ovarian) was 28.8 µM and the TGI (NCI-H226 lung) was over 100 µM. For the same compound, the TGI (KM12 colon) was over 100 µM.

`C=C(C)C1CC=C(C)C2(C1)OCC(C)(C)C(C)O2` (centres undefined) gave a TGI (OVCAR-4 ovarian) of 41.1 µM, a TGI (MALME-3M melanoma) of 29.5 µM and a TGI (A549 NSCLC) of 34.5 µM. The TGI (SNB-75 CNS) was 48.2 µM, the TGI (BT-549 breast) was 36 µM and the TGI (HOP-92 NSCLC) was 23.6 µM. The TGI (HOP-62 NSCLC) was 31.8 µM, the TGI (OVCAR-3 ovarian) was 29.9 µM and the TGI (NCI-H226 lung) was 35.7 µM. The TGI (KM12 colon) was 32.9 µM.

`O=C1/C(=C2\Sc3c(ccc(Cl)c3Cl)C2=O)Sc2c1ccc(Cl)c2Cl` gave a TGI (OVCAR-4 ovarian) of over 100 µM, a TGI (MALME-3M melanoma) of over 100 µM and a TGI (A549 NSCLC) of over 100 µM. The TGI (SNB-75 CNS) was over 100 µM, the TGI (BT-549 breast) was over 100 µM and the TGI (HOP-92 NSCLC) was over 100 µM. The TGI (HOP-62 NSCLC) was over 100 µM, the TGI (OVCAR-3 ovarian) was over 100 µM and the TGI (NCI-H226 lung) was over 100 µM. It also gave a TGI (KM12 colon) of over 100 µM.

`O=C1c2cccc3cccc(c23)C(=O)N1CCCNOCCONCCCN1C(=O)c2cccc3cccc(c23)C1=O` gave a TGI (OVCAR-4 ovarian) of over 100 µM, a TGI (MALME-3M melanoma) of over 100 µM and a TGI (A549 NSCLC) of over 100 µM. The TGI (SNB-75 CNS) was over 100 µM, the TGI (BT-549 breast) was over 100 µM and the TGI (HOP-92 NSCLC) was over 100 µM. The TGI (HOP-62 NSCLC) was over 100 µM, the TGI (OVCAR-3 ovarian) was over 100 µM and the TGI (NCI-H226 lung) was over 100 µM. The TGI (KM12 colon) was over 100 µM.

`COC(=O)[C@@]12CCCC(=O)[C@@H]1[C@H]1CCCC[C@H]12` gave a TGI (OVCAR-4 ovarian) of over 100 µM, a TGI (MALME-3M melanoma) of over 100 µM and a TGI (A549 NSCLC) of over 100 µM. The TGI (SNB-75 CNS) was over 100 µM, the TGI (BT-549 breast) was over 100 µM and the TGI (HOP-92 NSCLC) was over 100 µM. The TGI (HOP-62 NSCLC) was over 100 µM, the TGI (OVCAR-3 ovarian) was over 100 µM and the TGI (NCI-H226 lung) was over 100 µM. The TGI (KM12 colon) was over 100 µM.

`Cc1cc(=O)oc2cc(O)ccc12` gave a TGI (OVCAR-4 ovarian) of over 100 µM, a TGI (MALME-3M melanoma) of over 100 µM and a TGI (A549 NSCLC) of over 100 µM. For the same compound, the TGI (SNB-75 CNS) was over 100 µM, the TGI (BT-549 breast) was over 100 µM and the TGI (HOP-92 NSCLC) was over 100 µM. For the same compound, the TGI (HOP-62 NSCLC) was over 100 µM, the TGI (OVCAR-3 ovarian) was over 100 µM and the TGI (NCI-H226 lung) was over 100 µM. The TGI (KM12 colon) was over 100 µM.

For `Oc1ccc(CCc2cc(O)cc(O)c2)cc1`, the TGI (OVCAR-4 ovarian) was over 100 µM, the TGI (MALME-3M melanoma) was over 100 µM and the TGI (A549 NSCLC) was over 100 µM. For the same compound, the TGI (SNB-75 CNS) was over 100 µM, the TGI (BT-549 breast) was over 100 µM and the TGI (HOP-92 NSCLC) was over 100 µM. For the same compound, the TGI (HOP-62 NSCLC) was over 100 µM, the TGI (OVCAR-3 ovarian) was over 100 µM and the TGI (NCI-H226 lung) was over 100 µM. For the same compound, the TGI (KM12 colon) was over 100 µM.

`O=C(NCCCNCCNC(=O)c1cc(-c2ccccc2)nc2ccccc12)c1cc(-c2ccccc2)nc2ccccc12` was tested, and the TGI (OVCAR-4 ovarian) was 4.08 µM, the TGI (MALME-3M melanoma) was 3.43 µM and the TGI (A549 NSCLC) was 3.13 µM. For the same compound, the TGI (SNB-75 CNS) was 2.83 µM, the TGI (BT-549 breast) was 29.4 µM and the TGI (HOP-92 NSCLC) was 6.37 µM. It also gave a TGI (HOP-62 NSCLC) of 3.06 µM, a TGI (OVCAR-3 ovarian) of 3.6 µM and a TGI (NCI-H226 lung) of 5.05 µM. For the same compound, the TGI (KM12 colon) was 3.55 µM.

In the case of `CC(=O)c1cc2c(s1)C(=O)c1ccccc1C2=O`, the TGI (OVCAR-4 ovarian) is reported as 57 µM, the TGI (MALME-3M melanoma) is reported as 2.65 µM and the TGI (A549 NSCLC) is reported as 14.6 µM. It also gave a TGI (SNB-75 CNS) of 23.1 µM, a TGI (BT-549 breast) of 7.75 µM and a TGI (HOP-92 NSCLC) of 21.6 µM. The TGI (HOP-62 NSCLC) was over 100 µM, the TGI (OVCAR-3 ovarian) was 11.1 µM and the TGI (NCI-H226 lung) was 11.4 µM. It also gave a TGI (KM12 colon) of 11.5 µM.

`C/C(O)=C/c1nc2ccc([N+](=O)[O-])cc2nc1/C=C(/C)O` showed a TGI (OVCAR-4 ovarian) of over 100 µM, a TGI (MALME-3M melanoma) of 94.3 µM and a TGI (A549 NSCLC) of over 100 µM. For the same compound, the TGI (SNB-75 CNS) was over 100 µM, the TGI (BT-549 breast) was over 100 µM and the TGI (HOP-92 NSCLC) was 84.3 µM. The TGI (HOP-62 NSCLC) was over 100 µM, the TGI (OVCAR-3 ovarian) was over 100 µM and the TGI (NCI-H226 lung) was over 100 µM. The TGI (KM12 colon) was over 100 µM.

With `O=C(CNc1ccc(Cl)cc1Cl)NC1C=Cc2ccc(S(=O)(=O)Nc3ccc(Cl)cc3Cl)cc2C1=O` (centres undefined) the TGI (MALME-3M melanoma) was over 100 µM, the TGI (A549 NSCLC) was over 100 µM and the TGI (SNB-75 CNS) was over 100 µM. It also gave a TGI (BT-549 breast) of over 100 µM, a TGI (HOP-92 NSCLC) of over 100 µM and a TGI (HOP-62 NSCLC) of over 100 µM. The TGI (OVCAR-3 ovarian) was over 100 µM, the TGI (NCI-H226 lung) was over 100 µM and the TGI (KM12 colon) was over 100 µM.

`[N-]=[N+]=Nc1ccc(CNc2cc(=O)[nH]c(=O)[nH]2)cc1` showed a TGI (OVCAR-4 ovarian) of over 100 µM, a TGI (MALME-3M melanoma) of over 100 µM and a TGI (A549 NSCLC) of over 100 µM. It also gave a TGI (SNB-75 CNS) of over 100 µM, a TGI (BT-549 breast) of over 100 µM and a TGI (HOP-92 NSCLC) of over 100 µM. The TGI (HOP-62 NSCLC) was over 100 µM, the TGI (OVCAR-3 ovarian) was over 100 µM and the TGI (NCI-H226 lung) was over 100 µM. For the same compound, the TGI (KM12 colon) was over 100 µM.
